Molecules are shown by their SMILES.

By IC50 is commonly meant the point on the concentration scale where inhibition reaches its midpoint.

The experiment concerns the target T1, CFTR (Homo sapiens, UniProt P13569).
T1 construct: results in the phosphorylation and opening of CFTR anion channels; host or cells: Human colonic T84 cells
Kind of experiment: T84 assay (FLIPR membrane potential dye, forskolin/IBMX-stimulated CFTR channel activity). It counts as cell-based. The settings on record: Human colonic T84 cells; 10 μM forskolin + 100 μM IBMX; average of at least 2 runs unless marked n = 1. Here is the method:
(§1) For example, Human colonic T84 cells can be acquired from the European Collection of Cell Cultures (ECACC) and grown in standard culture conditions as described by the supplier. On the day before assay 25,000 T84 cells per well are plated into standard black walled, clear bottom 384-well assay plates in standard growth medium consisting of DMEM:F12 with 10% FBS and incubated overnight. On the day of the assay the plates are washed using a standard assay buffer (HBSS with 10 mM Hepes) and incubated for 15 minutes in serum free cell culture medium before the addition of a commercially available membrane potential sensitive fluorescent dye (FLIPR Red membrane potential dye, Molecular Devices Corporation). T84 cells are incubated with the FLIPR Red membrane potential dye for 45 minutes in the presence and absence of test compound before being transferred to a commercially available fluorescence imaging plate reader (FLIPR384, Molecular Devices Corporation). Fluorescence levels are monitored continuously every second for 150 seconds; after an initial 10 second baseline, CFTR channel activity is stimulated through the addition of 10 μM forskolin in the presence of 100 μM of the phosphodiesterase inhibitor iso-butylmethylxanthine (IBMX). Addition of the forskolin leads to the activation of intracellular adenylyl cylase 1, elevating cAMP levels and results in the phosphorylation and opening of CFTR anion channels. CFTR channel opening causes chloride ion efflux and subsequent depolarization of the cells, which is measured by an increase in fluorescence. CFTR inhibitor compounds prevent cell depolarization and the associated increase in fluorescence.
as §1, with “Human colonic” for “For example, Human colonic”, “T84 cells are acquired from” for “T84 cells can be acquired from”, “(ECACC) and are grown in” for “(ECACC) and grown in”

T1 sequence (P13569 whole entry): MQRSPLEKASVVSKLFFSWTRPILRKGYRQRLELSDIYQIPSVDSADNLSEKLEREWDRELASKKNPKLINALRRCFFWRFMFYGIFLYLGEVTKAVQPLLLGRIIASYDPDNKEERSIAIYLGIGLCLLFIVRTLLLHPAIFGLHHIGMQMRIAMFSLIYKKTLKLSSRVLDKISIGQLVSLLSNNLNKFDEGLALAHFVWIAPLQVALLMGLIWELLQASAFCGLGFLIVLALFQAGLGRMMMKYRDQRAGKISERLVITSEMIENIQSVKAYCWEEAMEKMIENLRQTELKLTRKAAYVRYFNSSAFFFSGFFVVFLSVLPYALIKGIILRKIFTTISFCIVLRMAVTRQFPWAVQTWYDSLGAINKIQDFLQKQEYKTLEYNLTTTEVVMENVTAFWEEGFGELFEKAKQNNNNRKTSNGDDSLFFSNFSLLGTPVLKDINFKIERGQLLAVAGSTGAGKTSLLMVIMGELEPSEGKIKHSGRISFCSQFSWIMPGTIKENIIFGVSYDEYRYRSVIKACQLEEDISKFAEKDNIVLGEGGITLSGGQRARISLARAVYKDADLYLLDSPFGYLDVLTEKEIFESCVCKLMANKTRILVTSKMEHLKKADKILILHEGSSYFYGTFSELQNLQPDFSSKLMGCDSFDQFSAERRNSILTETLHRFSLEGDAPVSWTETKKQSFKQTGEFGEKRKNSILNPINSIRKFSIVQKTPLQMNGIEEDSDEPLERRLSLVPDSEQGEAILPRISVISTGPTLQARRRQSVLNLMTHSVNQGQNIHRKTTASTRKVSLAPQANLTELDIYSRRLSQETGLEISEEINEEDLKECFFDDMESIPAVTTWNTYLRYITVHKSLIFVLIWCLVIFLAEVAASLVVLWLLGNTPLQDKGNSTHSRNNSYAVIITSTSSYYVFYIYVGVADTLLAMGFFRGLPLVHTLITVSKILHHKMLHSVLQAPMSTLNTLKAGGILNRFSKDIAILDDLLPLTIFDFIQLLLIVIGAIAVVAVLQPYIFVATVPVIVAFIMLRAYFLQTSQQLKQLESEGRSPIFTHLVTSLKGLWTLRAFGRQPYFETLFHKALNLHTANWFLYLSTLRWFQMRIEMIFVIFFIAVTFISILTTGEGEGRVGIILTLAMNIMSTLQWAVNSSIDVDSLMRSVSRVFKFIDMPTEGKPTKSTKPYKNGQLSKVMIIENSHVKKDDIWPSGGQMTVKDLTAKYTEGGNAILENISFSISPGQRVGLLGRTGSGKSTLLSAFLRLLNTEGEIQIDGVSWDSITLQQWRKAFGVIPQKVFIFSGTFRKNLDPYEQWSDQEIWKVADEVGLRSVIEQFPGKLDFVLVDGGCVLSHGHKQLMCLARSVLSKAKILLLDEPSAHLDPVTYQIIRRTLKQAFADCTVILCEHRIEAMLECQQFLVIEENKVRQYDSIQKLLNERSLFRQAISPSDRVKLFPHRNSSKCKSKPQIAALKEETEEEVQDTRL

In the case of `CN(Cc1ccc(C(C)(C)C)cc1)C(=O)c1cc(-c2cc(Cl)c(O)c(Cl)c2)n[nH]1` [Compound 8, N-(4-tert-butylbenzyl)-3-(3,5-dichloro-4-hydroxyphenyl)-N-methyl-1H-pyrazole-5-carboxamide], the IC50 stood at 16.5 µM.

Take `O=C(NCc1cccc(OC(F)(F)F)c1)c1cc(-c2cc(Cl)c(O)c(Cl)c2)n[nH]1` [Compound 2, 3-(3,5-dichloro-4-hydroxyphenyl)-N-(3-(trifluoromethoxy)benzyl)-1H-pyrazole-5-carboxamide]: the 50% inhibitory concentration (IC50) stood at 18.7 µM.

For `O=C(NCc1ccc(Cl)c(Cl)c1)c1cc(-c2cc(Cl)c(O)c(Cl)c2)n[nH]1` [Compound 5, 3-(3,5-dichloro-4-hydroxyphenyl)-N-(3,4-dichlorobenzyl)-1H-pyrazole-5-carboxamide], the IC50 is 29.5 µM.

Regarding `O=C(c1cc(-c2cc(Cl)c(O)c(Cl)c2)n[nH]1)N1CCN(c2cccc(C(F)(F)F)c2)CC1` [Compound 10, (3-(3,5-dichloro-4-hydroxyphenyl)-1H-pyrazol-5-yl)(4-(3-(trifluoromethyl)phenyl)piperazin-1-yl)methanone], the IC50 was 29.6 µM.

For `CC(C)(C)c1ccc(CNC(=O)c2cc(-c3cc(Cl)c(O)c(Cl)c3)n[nH]2)cc1` [Compound 6, N-(4-tert-butylbenzyl)-3-(3,5-dichloro-4-hydroxyphenyl)-1H-pyrazole-5-carboxamide], the IC50 was found to be 17.4 µM.

In the case of `O=C(NCc1ccc(F)c(C(F)(F)F)c1)c1cc(-c2cc(Cl)c(O)c(Cl)c2)n[nH]1` [Compound 9, 3-(3,5-dichloro-4-hydroxyphenyl)-N-(4-fluoro-3-(trifluoromethyl)benzyl)-1H-pyrazole-5-carboxamide], the IC50 was found to be 29.8 µM.

Consider `CN(Cc1ccc(Oc2ccccn2)cc1)C(=O)c1cc(-c2cc(Cl)c(O)c(Cl)c2)n[nH]1` [Compound 7, 3-(3,5-dichloro-4-hydroxyphenyl)-N-methyl-N-(4-(pyridin-2-yloxy)benzyl)-1H-pyrazole-5-carboxamide], for which the IC50 came out at 21 µM.

Consider `O=C(NCCC(c1ccccc1)c1ccccc1)c1cc(-c2cc(Cl)c(O)c(Cl)c2)n[nH]1` [Compound 3, 3-(3,5-dichloro-4-hydroxyphenyl)-N-(3,3-diphenylpropyl)-1H-pyrazole-5-carboxamide], for which the concentration for half-maximal inhibition (IC50) came out at 3.46 µM.

On to `CN(Cc1cccc(C(F)(F)F)c1)C(=O)c1cc(-c2cc(Cl)c(O)c(Cl)c2)n[nH]1` [Compound 1, 3-(3,5-dichloro-4-hydroxyphenyl)-N-methyl-N-(3-(trifluoromethyl)benzyl)-1H-pyrazole-5-carboxamide], for which the IC50 was found to be 9.06 µM.

Turning to `CN(Cc1ccc(Oc2ccccc2)cc1)C(=O)c1cc(-c2cc(Cl)c(O)c(Cl)c2)n[nH]1` [Compound 4, 3-(3,5-dichloro-4-hydroxyphenyl)-N-methyl-N-(4-phenoxybenzyl)-1H-pyrazole-5-carboxamide], the IC50 was 21.1 µM.

For the origin of these results see US8343976B2, “Compounds, compositions and methods comprising pyrazole derivatives” (Institute for OneWorld Health, priority 2009, dated 2013).
